Patent US20240315947A1, “COSMETIC COMPOSITION COMPRISING MOLECULAR AGGREGATES OF BILE ACIDS OR BILE ACID SALTS” (SCAI THERAPEUTICS CO., LTD., priority 2021, published 2024)
Like-named read-outs stand apart in the source and are kept apart here.

Assays:
[1] = set-up: species or system SD rats; details: rat, in vivo
Text: The interscapular region (back of the neck near the ear) of 10-week-old SD rats (280-350 g) with sufficient subcutaneous adipose tissue was shaved and anesthetized.

[2] = test system: skin, subcutaneous tissue of the interscapular region; assay: SD rat histological analysis (H&E, Masson's trichome staining); format: in vivo, SD rats; details: subcutaneous injection, 500 μL of 1%
Text: The interscapular region (back of the neck near the ear) of 10-week-old SD rats (280-350 g) with sufficient subcutaneous adipose tissue was shaved and anesthetized. […].
Then, tissues (skin, subcutaneous tissue) of the interscapular region were collected, fixed, and subjected to H&E staining and Masson's trichome staining. Tissue changes were investigated through microscopic observation.

3T3-L1 preadipocytes = assay: Preadipocyte cytotoxicity (cell counting kit-8); details: treated for 4 hours
Description: 3T3-L1 preadipocytes were inoculated into a 96 well plate at 5×10^3 per well, grown in medium (high glucose DMEM, 10% bovine calf serum, 1% penicillin/streptomycin) for 16 hours. The drug was prepared to contain 0.04% and 0.08%, respectively, and then treated for 4 hours. After adding 10 μl of Dojingo CK04-11 cell counting kit-8 to each well according to the manual, reacting for 2 hours, the absorbance at 450 nm was measured with a spectrophotometer to compare preadipocyte cytotoxicity.

Row | Compound | amount of DCA in the subcutaneous tissue [1] | amount of DCA in the subcutaneous tissue ([1]; sc) | tissue damage (H&E staining) [2] | tissue findings at section creation (Masson's trichome staining) [2] | preadipocyte cytotoxicity (comparison between test materials) (3T3-L1 preadipocytes; 0.04%) | survival rate of preadipocytes (3T3-L1 preadipocytes; 0.08%) [%]
1 | C[C@H](CCC(=O)O)[C@H]1CC[C@H]2[C@@H]3CC[C@@H]4C[C@H](O)CC[C@]4(C)[C@H]3C[C@H](O)[C@]12C [deoxycholic acid] | increased over time | gradually decreased | severe tissue damage | hematoma and edema |  | 
2 | Sodium deoxycholate [precursor of deoxycholic acid salt] |  |  |  |  | the same | 24.6
